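In this assay, cells in 96-well plates receive the compound at five concentrations for 48 hours. Endpoints are linearly interpolated between the surrounding concentrations. Abbreviation: GI50, concentration required for 50% inhibition of growth. At the TGI there is no net growth.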
What was measured:
Assay in all cases: NCI-60 cell line screen, 48 h
OVCAR-4 ovarian = test system: OVCAR-4 ovarian
CAKI-1 renal = test system: CAKI-1 renal
IGROV1 ovarian = test system: IGROV1 ovarian
DU-145 prostate = test system: DU-145 prostate
NCI-H23 lung = test system: NCI-H23 lung
MALME-3M melanoma = test system: MALME-3M melanoma
UACC-257 melanoma = test system: UACC-257 melanoma
NCI-H226 lung = test system: NCI-H226 lung
U251 CNS = test system: U251 CNS
NCI/ADR-RES ovarian = test system: NCI/ADR-RES ovarian
OVCAR-5 ovarian = test system: OVCAR-5 ovarian
SW-620 colon = test system: SW-620 colon
786-0 renal = test system: 786-0 renal
LOX IMVI melanoma = test system: LOX IMVI melanoma
SNB-75 CNS = test system: SNB-75 CNS
SK-MEL-28 melanoma = test system: SK-MEL-28 melanoma
NCI-H522 lung = test system: NCI-H522 lung
OVCAR-3 ovarian = test system: OVCAR-3 ovarian
SN12C renal = test system: SN12C renal
SF-539 CNS = test system: SF-539 CNS
A549 NSCLC = test system: A549 NSCLC
A498 renal = test system: A498 renal
BT-549 breast = test system: BT-549 breast
HOP-92 NSCLC = test system: HOP-92 NSCLC
SK-MEL-5 melanoma = test system: SK-MEL-5 melanoma
K-562 leukemia = test system: K-562 leukemia
PC-3 prostate = test system: PC-3 prostate
T-47D breast = test system: T-47D breast
SF-295 CNS = test system: SF-295 CNS
HCC-2998 colon = test system: HCC-2998 colon
CCRF-CEM leukemia = test system: CCRF-CEM leukemia
HCT-15 colon = test system: HCT-15 colon
HCT-116 colon = test system: HCT-116 colon
MDA-MB-435 = test system: MDA-MB-435
OVCAR-8 ovarian = test system: OVCAR-8 ovarian
HL-60(TB) leukemia = test system: HL-60(TB) leukemia
MOLT-4 leukemia = test system: MOLT-4 leukemia
NCI-H460 lung = test system: NCI-H460 lung
KM12 colon = test system: KM12 colon
SNB-19 CNS = test system: SNB-19 CNS
UACC-62 melanoma = test system: UACC-62 melanoma
SF-268 CNS = test system: SF-268 CNS
SR leukemia = test system: SR leukemia
RPMI-8226 leukemia = test system: RPMI-8226 leukemia
HS 578T breast = test system: HS 578T breast
SK-MEL-2 melanoma = test system: SK-MEL-2 melanoma
SK-OV-3 ovarian = test system: SK-OV-3 ovarian
TK-10 renal = test system: TK-10 renal
MDA-MB-231 breast = test system: MDA-MB-231 breast
UO-31 renal = test system: UO-31 renal
COLO 205 colon = test system: COLO 205 colon
EKVX NSCLC = test system: EKVX NSCLC
RXF 393 renal = test system: RXF 393 renal
M14 melanoma = test system: M14 melanoma
MCF7 breast = test system: MCF7 breast
HOP-62 NSCLC = test system: HOP-62 NSCLC
HT29 colon = test system: HT29 colon
ACHN renal = test system: ACHN renal

Nc1nc(-c2cccc([N+](=O)[O-])c2)c(N=Nc2ccc([N+](=O)[O-])cc2Cl)s1
GI50 (OVCAR-4 ovarian): 274 nM
TGI (OVCAR-4 ovarian): > 67400 nM
GI50 (CAKI-1 renal): 204 nM
TGI (CAKI-1 renal): 1700 nM
GI50 (IGROV1 ovarian): 446 nM
TGI (IGROV1 ovarian): 18500 nM
GI50 (DU-145 prostate): 383 nM
TGI (DU-145 prostate): > 49900 nM
GI50 (NCI-H23 lung): 168 nM
TGI (NCI-H23 lung): 786 nM
GI50 (MALME-3M melanoma): 172 nM
TGI (MALME-3M melanoma): 739 nM
GI50 (UACC-257 melanoma): 133 nM
TGI (UACC-257 melanoma): 1370 nM
GI50 (NCI-H226 lung): 196 nM
TGI (NCI-H226 lung): 816 nM
GI50 (U251 CNS): 213 nM
TGI (U251 CNS): 1320 nM
GI50 (NCI/ADR-RES ovarian): 254 nM
TGI (NCI/ADR-RES ovarian): 2050 nM
GI50 (OVCAR-5 ovarian): 535 nM
TGI (OVCAR-5 ovarian): 36400 nM
GI50 (SW-620 colon): 325 nM
TGI (SW-620 colon): 5460 nM
GI50 (786-0 renal): 351 nM
TGI (786-0 renal): 7210 nM
GI50 (LOX IMVI melanoma): 317 nM
TGI (LOX IMVI melanoma): 4610 nM
GI50 (SNB-75 CNS): 171 nM
TGI (SNB-75 CNS): 2280 nM
GI50 (SK-MEL-28 melanoma): 336 nM
TGI (SK-MEL-28 melanoma): 8140 nM
GI50 (NCI-H522 lung): 119 nM
TGI (NCI-H522 lung): 2490 nM
GI50 (OVCAR-3 ovarian): 245 nM
TGI (OVCAR-3 ovarian): 12900 nM
GI50 (SN12C renal): 261 nM
TGI (SN12C renal): 4570 nM
GI50 (SF-539 CNS): 344 nM
TGI (SF-539 CNS): 10400 nM
GI50 (A549 NSCLC): 354 nM
TGI (A549 NSCLC): > 34900 nM
GI50 (A498 renal): 270 nM
TGI (A498 renal): 737 nM
GI50 (BT-549 breast): 206 nM
TGI (BT-549 breast): 842 nM
GI50 (HOP-92 NSCLC): 48.6 nM
TGI (HOP-92 NSCLC): 418 nM
GI50 (SK-MEL-5 melanoma): 87.7 nM
TGI (SK-MEL-5 melanoma): 286 nM
GI50 (K-562 leukemia): 151 nM
TGI (K-562 leukemia): 4990 nM
GI50 (PC-3 prostate): 244 nM
TGI (PC-3 prostate): 7390 nM
GI50 (T-47D breast): 67.1 nM
TGI (T-47D breast): 771 nM
GI50 (SF-295 CNS): 261 nM
TGI (SF-295 CNS): 1110 nM
GI50 (HCC-2998 colon): 309 nM
TGI (HCC-2998 colon): 7420 nM
GI50 (CCRF-CEM leukemia): 310 nM
TGI (CCRF-CEM leukemia): 9120 nM
GI50 (HCT-15 colon): 193 nM
TGI (HCT-15 colon): 2000 nM
GI50 (HCT-116 colon): 231 nM
TGI (HCT-116 colon): 1230 nM
GI50 (MDA-MB-435): 291 nM
TGI (MDA-MB-435): 3650 nM
GI50 (OVCAR-8 ovarian): 308 nM
TGI (OVCAR-8 ovarian): 4460 nM
GI50 (HL-60(TB) leukemia): 254 nM
TGI (HL-60(TB) leukemia): 1130 nM
GI50 (MOLT-4 leukemia): 266 nM
TGI (MOLT-4 leukemia): 2580 nM
GI50 (NCI-H460 lung): 243 nM
TGI (NCI-H460 lung): 1260 nM
GI50 (KM12 colon): 272 nM
TGI (KM12 colon): 3730 nM
GI50 (SNB-19 CNS): 311 nM
TGI (SNB-19 CNS): 20800 nM
GI50 (UACC-62 melanoma): 144 nM
TGI (UACC-62 melanoma): 1620 nM
GI50 (SF-268 CNS): 310 nM
TGI (SF-268 CNS): > 41400 nM
GI50 (SR leukemia): 293 nM
TGI (SR leukemia): 2940 nM
GI50 (RPMI-8226 leukemia): 99.6 nM
GI50 (HS 578T breast): 239 nM
TGI (HS 578T breast): 1210 nM
GI50 (SK-MEL-2 melanoma): 86 nM
TGI (SK-MEL-2 melanoma): 401 nM
GI50 (SK-OV-3 ovarian): 160 nM
TGI (SK-OV-3 ovarian): 1000 nM
GI50 (TK-10 renal): 573 nM
TGI (TK-10 renal): 8870 nM
GI50 (MDA-MB-231 breast): 289 nM
TGI (MDA-MB-231 breast): 1780 nM
GI50 (UO-31 renal): 236 nM
TGI (UO-31 renal): 1380 nM
GI50 (COLO 205 colon): 342 nM
TGI (COLO 205 colon): 1290 nM
GI50 (EKVX NSCLC): 260 nM
TGI (EKVX NSCLC): 4200 nM
GI50 (RXF 393 renal): 251 nM
TGI (RXF 393 renal): 704 nM
GI50 (M14 melanoma): 377 nM
TGI (M14 melanoma): 6750 nM
GI50 (MCF7 breast): 192 nM
TGI (MCF7 breast): 1360 nM
GI50 (HOP-62 NSCLC): 312 nM
TGI (HOP-62 NSCLC): 1700 nM
GI50 (HT29 colon): 342 nM
TGI (HT29 colon): 4380 nM
GI50 (ACHN renal): 287 nM
TGI (ACHN renal): 11300 nM

— PubChem BioAssay (NCI)
